Measurements as given in ChEMBL document CHEMBL4699484, “Discovery of small molecule FLT3 inhibitors that are able to overcome drug-resistant mutations” (Bioorg Med Chem Lett, 2020).

Tests used:
[1] = molecular target: T1, Receptor-type tyrosine-protein kinase FLT3 (Homo sapiens, UniProt P36888, ITD); type: cell-based, BaF3
Description: Inhibition of FLT3 ITD mutant (unknown origin) expressed in mouse BaF3 cells

[2] = molecular target: Receptor-type tyrosine-protein kinase FLT3 (Homo sapiens, UniProt P36888, F691L/ITD); type: cell-based, BaF3
Description: Inhibition of FLT3 ITD/F691L double mutant (unknown origin) expressed in mouse BaF3 cells

BaF3 = assay: cells; details: Mus musculus
Description: Cytotoxicity against mouse BaF3 cells assessed as reduction in cell viability

[3] = molecular target: Receptor-type tyrosine-protein kinase FLT3 (Homo sapiens, UniProt P36888, D835Y/ITD); type: cell-based, BaF3
Description: Inhibition of FLT3 ITD/D835Y double mutant (unknown origin) expressed in mouse BaF3 cells

[4] = (§1) Inhibition of Wnt/beta-Catenin signaling (unknown origin) expressed in STF3a cells incubated for 24 hrs by STF luciferase reporter gene assay; type: cell-based; details: Homo sapiens
STF3A = assay: as §1; type: cell-based; details: Homo sapiens
[5] = molecular target: T1, Receptor-type tyrosine-protein kinase FLT3; assay: Inhibition of human partial length FLT3 ITD mutant expressed in bacterial expression system by Kinomescan method

SMILES: COc1cc2nccc(Oc3ccc(NC(=O)Nc4cc(C(C)(C)C)on4)cc3F)c2cc1OC
- IC50 [1]: 0.072 nM
- IC50 [2]: 5.86 nM
- IC50 (BaF3): 1210 nM
- IC50 [3]: 3.48 nM
- IC50 [4]: < 500 nM
- inhibition (STF3A): Dose-dependent effect

SMILES: CC(C)(C)c1cc(NC(=O)Nc2ccc(Oc3ccnc4[nH]ccc34)c(F)c2)no1
- IC50 [1]: 141 nM
- IC50 [2]: 1020 nM
- IC50 (BaF3): > 10000 nM
- IC50 [3]: 741 nM

SMILES: COc1cc2nccc(Oc3ccc(NC(=O)Nc4cc(C(C)(C)C)on4)cc3F)c2cc1OCCCN1CCOCC1
- IC50 [1]: 5.77 nM
- IC50 [2]: 16.8 nM
- IC50 (BaF3): 1840 nM
- IC50 [3]: 6.28 nM

SMILES: COc1cc2c(Oc3ccc(NC(=O)Nc4cc(C(C)(C)C)on4)cc3F)ccnc2cc1OCC(C)C
- IC50 [1]: 36.5 nM
- IC50 [2]: 127 nM
- IC50 (BaF3): 4820 nM
- IC50 [3]: 62.4 nM

SMILES: COc1cc2c(Oc3ccc(NC(=O)Nc4cc(C(C)(C)C)on4)cc3F)ncnc2cn1
- IC50 [1]: 1.2 nM
- IC50 [2]: 1020 nM
- IC50 (BaF3): 3040 nM
- IC50 [3]: 64.2 nM

SMILES: CCOc1cc2nccc(Oc3ccc(NC(=O)Nc4cc(C(C)(C)C)on4)cc3F)c2cc1OCC
- IC50 [1]: 3.08 nM
- IC50 [2]: 32.6 nM
- IC50 (BaF3): 3140 nM
- IC50 [3]: 15.5 nM

SMILES: COCCOc1cc2c(Oc3ccc(NC(=O)Nc4cc(C(C)(C)C)on4)cc3F)ccnc2cc1OC
- IC50 [1]: 4.91 nM
- IC50 [2]: 20.8 nM
- IC50 (BaF3): 3000 nM
- IC50 [3]: 10.1 nM

SMILES: COc1cc2c(Oc3ccc(NC(=O)Nc4cc(C(C)(C)C)on4)cc3F)ccnc2cc1OCC1CCCC1
- IC50 [1]: 66.5 nM
- IC50 [2]: 189 nM
- IC50 (BaF3): 5560 nM
- IC50 [3]: 104 nM

SMILES: COc1cc2c(Oc3ccc(NC(=O)Nc4cc(C(C)(C)C)on4)cc3F)ccnc2cc1OCCCN1CCOCC1
- IC50 [1]: 3.22 nM
- IC50 [2]: 9.93 nM
- IC50 (BaF3): 1100 nM
- IC50 [3]: 5.09 nM

SMILES: CCCOc1cc2nccc(Oc3ccc(NC(=O)Nc4cc(C(C)(C)C)on4)cc3F)c2cc1OC
- IC50 [1]: 19.2 nM
- IC50 [2]: 54.3 nM
- IC50 (BaF3): 4940 nM
- IC50 [3]: 14.9 nM

SMILES: CC(C)(C)c1cc(NC(=O)Nc2ccc(Oc3nccc4ccccc34)c(F)c2)no1
- IC50 [1]: 1260 nM
- IC50 [2]: > 10000 nM
- IC50 (BaF3): > 10000 nM
- IC50 [3]: > 10000 nM

SMILES: CCCOc1cc2c(Oc3ccc(NC(=O)Nc4cc(C(C)(C)C)on4)cc3F)ccnc2cc1OC
- IC50 [1]: 76.1 nM
- IC50 [2]: 296 nM
- IC50 (BaF3): 7770 nM
- IC50 [3]: 160 nM

SMILES: CC(C)(C)c1cc(NC(=O)Nc2ccc(Oc3ccnc4[nH]ncc34)c(F)c2)no1
- IC50 [1]: 0.292 nM
- IC50 [2]: 35 nM
- IC50 (BaF3): 2620 nM
- IC50 [3]: 34.3 nM

SMILES: COCCOc1cc2nccc(Oc3ccc(NC(=O)Nc4cc(C(C)(C)C)on4)cc3F)c2cc1OCCOC
- IC50 [1]: 5.17 nM
- IC50 [2]: 16 nM
- IC50 (BaF3): 2000 nM
- IC50 [3]: 11 nM

SMILES: CC(C)(C)c1cc(NC(=O)Nc2ccc(Oc3ccnc4cc(OCC5CCCC5)c(OCC5CCCC5)cc34)c(F)c2)no1
- IC50 [1]: 37.2 nM
- IC50 [2]: 38.9 nM
- IC50 (BaF3): 6500 nM
- IC50 [3]: 27.9 nM

SMILES: CC(C)(C)c1cc(NC(=O)Nc2ccc(Oc3ncnc4[nH]ncc34)c(F)c2)no1
- IC50 [1]: 0.038 nM
- IC50 [2]: 108 nM
- IC50 [5]: 1.3 nM
- IC50 (BaF3): 3160 nM
- IC50 [3]: 130 nM

SMILES: CCOc1cc2nccc(Oc3ccc(NC(=O)Nc4cc(C(C)(C)C)on4)cc3F)c2cc1OC
- IC50 [1]: 5.2 nM
- IC50 [2]: 8.31 nM
- IC50 (BaF3): 1650 nM
- IC50 [3]: 5.96 nM

SMILES: COCCOc1cc2nccc(Oc3ccc(NC(=O)Nc4cc(C(C)(C)C)on4)cc3F)c2cc1OC
- IC50 [1]: 4.73 nM
- IC50 [2]: 11.9 nM
- IC50 (BaF3): 1130 nM
- IC50 [3]: 5.35 nM

SMILES: CCOc1cc2c(Oc3ccc(NC(=O)Nc4cc(C(C)(C)C)on4)cc3F)ccnc2cc1OC
- IC50 [1]: 7.25 nM
- IC50 [2]: 29.9 nM
- IC50 (BaF3): 2880 nM
- IC50 [3]: 10.9 nM

SMILES: COc1cc2nccc(Oc3ccc(NC(=O)Nc4cc(C(C)(C)C)on4)cc3F)c2cc1OC(C)C
- IC50 [1]: 6.88 nM
- IC50 [2]: 23.1 nM
- IC50 (BaF3): 2030 nM
- IC50 [3]: 10.6 nM

SMILES: COc1cc2ncnc(Oc3ccc(NC(=O)Nc4cc(C(C)(C)C)on4)cc3F)c2cc1OC
- IC50 [1]: 1.51 nM
- IC50 [2]: 13.8 nM
- IC50 (BaF3): > 1990 nM
- IC50 [3]: 7.93 nM

SMILES: CC(C)(C)c1cc(NC(=O)Nc2ccc(Oc3ccnc4nc[nH]c34)c(F)c2)no1
- IC50 [1]: 0.015 nM
- IC50 [2]: 18.6 nM
- IC50 (BaF3): 2080 nM
- IC50 [3]: 12.4 nM

SMILES: COc1cc2c(Oc3ccc(NC(=O)Nc4cc(C(C)(C)C)on4)cc3F)ccnc2cc1OCC1CO1 (stereo not given)
- IC50 [1]: 2650 nM
- IC50 [2]: 5270 nM
- IC50 (BaF3): 9200 nM
- IC50 [3]: 3540 nM
